Measurements taken from article PMC13379236 (Cell reports, 2026).
Entries after “also recorded” stand apart in the source; their conditions may differ.

Columns and labels:
ZYG11B [1] = details: cited from earlier work
innate immune response = details: cited from earlier work
ZYG11B [2] = format: cell-based, human
NLRP1 inflammasome = format: cell-based, human

## ORF10: SARS-CoV-2 protein ORF10, overexpressed
ZYG11B [1]
  interaction with ZYG11B: interacts with ZYG11B
Innate immune response
  effect on innate immune response: can suppress the innate immune response
ZYG11B [2]
  ORF10 binding to ZYG11B E644K: decrease the binding
  ORF10 binding to ZYG11B K515E: substantially enhance binding
  ORF10 binding to ZYG11B R466A: minimal effect; also recorded: did not strongly affect ORF10 binding
NLRP1 inflammasome
  effect of ORF10 on inflammasome activation with NLRP1 E133K: no decrease in inflammasome activation
  inhibition of HRV 3Cpro-mediated activation of wild-type NLRP1: could inhibit HRV 3Cpro-mediated activation of NLRP1
